Experimental data: patent US12319655B2, “RAF kinase inhibitors and methods of use thereof” (Deciphera Pharmaceuticals, LLC, priority 2021, dated 2025)

Legend:
[1] = biological target: B-Raf (V600E) (SEQ. ID NO: 4) kinase (Homo sapiens (Human), UniProt P15056, V600E); test: Biochemical Assay for B-Raf (V600E) (1); conditions: Table J, BRAF V600E, assay version (1); read-out: BRAF VE (1) IC50
Outline: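 Serially diluted compounds tested against 0.03 nM enzyme with 30.1 nM MEK substrate and 1 mM ATP (Tris pH 7.5, 15 mM MgCl2), ATP use coupled to NADH loss via PK/LDH. A340 monitored continuously 6 h, 30 °C; IC50 fitted (four-parameter) from the 3–4 h rate versus no-compound and known-inhibitor controls.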

Miapaca-2 cells = test: MiaPaca-2 Cell Proliferation Assay (1); format: cell-based; conditions: Homo sapiens, MIA PaCa-2, single agent, read-out: MiaPaca2 (1) IC50
Outline: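 Resazurin was added after compound exposure and incubated 5-6 h, then fluorescence read at 540 nm excitation and 600 nm emission to give IC50.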

H2405 cells = test: H2405 Cell Proliferation Assay (1); format: cell-based; conditions: Homo sapiens, NCI-H2405
Protocol: H2405 Cell Proliferation Assay (1)
H2405 cells (catalog #CRL-5994) are obtained from the American Type Culture Collect (ATTC, Manassas, VA). Briefly, cells were grown in RPMI 1640 supplemented with 5% characterized fetal bovine serum (Invitrogen, Carlsbad, CA) and 1% Penicillin/Streptomycin/L-Glutamine at 37° C., 5% CO2, and 95% humidity. Cells are expanded until reaching 70-95% confluency at which point they are sub-cultured or harvested for assay use. A serial dilution of test compound is dispensed into a 96-well black clear bottom plate in triplicate. Three thousand cells are added per well in 200 μL complete growth medium in the 96-well plate. Plates are incubated for 67-72 h at 37° C., 5% CO2, and 95% humidity. At the end of the incubation, 40 μL of a 440 μM solution of resazurin (Sigma, St. Louis, MO) in PBS is added to each well of the plate and plates are incubated for an additional 5-6 h at 37° C., 5% CO2, and 95% humidity. Plates are read on a Synergy2 or equivalent reader (Biotek, Winooski VT) using an excitation of 540 nm and an emission of 600 nm. Data is analyzed using Prism software (GraphPad, San Diego, CA) to calculate IC50 values.

WM3928 cells = test: WM3928 Cell Proliferation Assay (1); format: cell-based
Protocol: WM3928 Cell Proliferation Assay (1)
WM3928 cells (#WM3928-01-0001) are obtained from Rockland Immunochemicals Inc (Gilbertsville, PA). Briefly, cells were grown in MCDB 153 medium (Sigma, #M7403, St. Louis, MO) supplemented with 20% Leibovitz's L-15 (ThermoFisher #11415-064, Waltham, MA), 2% heat inactivated fetal bovine serum (ThermoFisher, #A3840001, Waltham, MA), 5 μg/mL Insulin (Bovine Pancreas) (Sigma, #I0516, St. Louis, MO), 1.68 mM Calcium Chloride (Sigma, #C-34006, St. Louis, MO) and 1% Penicillin/Streptomycin/L-Glutamine (ThermoFisher #10378016, Waltham, MA) at 37° C., 5% CO2, and 95% humidity. Cells are expanded until reaching 70-95% confluency at which point they are subcultured or harvested for assay use. A serial dilution of test compound is dispensed into a 96-well black clear bottom plate in triplicate. Three thousand cells are added per well in 200 μL complete growth medium in the 96-well plate. Plates are incubated for 67-72 hours at 37° C., 5% CO2, and 95% humidity. At the end of the incubation, 40 μL of a 440 μM solution of resazurin (Sigma, #199303, St. Louis, MO) in PBS is added to each well of the plate and plates are incubated for an additional 6-7 hours at 37° C., 5% CO2, and 95% humidity. Plates are read on a Synergy2 or equivalent reader (Biotek, Winooski VT) using an excitation of 540 nm and an emission of 600 nm. Data is analyzed using Prism software (GraphPad, San Diego, CA) to calculate IC50 values.

B-Raf (V600E) (SEQ. ID NO: 4) kinase, sequence (P15056 416-766 V600E): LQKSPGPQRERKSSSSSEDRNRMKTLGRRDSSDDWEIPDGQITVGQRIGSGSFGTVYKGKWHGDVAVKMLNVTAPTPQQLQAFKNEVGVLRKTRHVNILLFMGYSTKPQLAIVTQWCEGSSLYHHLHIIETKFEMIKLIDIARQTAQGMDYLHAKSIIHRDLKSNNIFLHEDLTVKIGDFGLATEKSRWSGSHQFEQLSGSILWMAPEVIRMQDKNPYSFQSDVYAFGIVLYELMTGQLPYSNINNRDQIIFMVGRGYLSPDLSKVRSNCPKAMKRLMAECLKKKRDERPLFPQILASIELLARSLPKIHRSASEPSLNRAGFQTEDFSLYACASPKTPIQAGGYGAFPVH

SMILES | IC50 [1] [nM] | IC50 (Miapaca-2 cells) [nM] | IC50 (H2405 cells) [nM] | IC50 (WM3928 cells) [nM]
Cc1cc(F)c(NC(=O)c2ccnc(C(C)(C)C#N)c2)cc1-c1ccnc(-c2ccnc(NC=O)c2)c1 [Example 104] | ≤ 100 | 1000 to 10000 | ≤ 100 | ≤ 100
Cc1ccc(NC(=O)c2cccc(C(C)(C)C#N)c2)cc1-c1cc(OCCO)nc(-c2ccnc3c2CC(=O)N3)c1 [Example 108] | ≤ 100 | 1000 to 10000 | ≤ 100 | ≤ 100
CC(=O)Nc1cc(-c2cncc(-c3cc(NC(=O)c4cccc(C(C)(C)C#N)c4)ccc3C)n2)ccn1 [Example 125] | ≤ 100 | 500 to 1000 | ≤ 100 | ≤ 100
Cc1ncc(NC(=O)c2ccnc(C(C)(C)C#N)c2)cc1-c1cccc(-c2ncnc3[nH]ncc23)c1 [Example 129] | ≤ 100 | 1000 to 10000 | 100 to 500 | 100 to 500
Cc1ncc(NC(=O)c2ccnc(C3CC3)c2)cc1-c1cccc(-c2ncnc3[nH]ncc23)c1 [Example 131] | ≤ 100 | 1000 to 10000 | 1000 to 10000 | 1000 to 10000
Cc1ccc(NC(=O)c2ccnc(C(C)(C)C#N)c2)cc1-c1cccc(-c2ccnc3[nH]ccc23)c1 [Example 133] | ≤ 100 | – | 500 to 1000 | –
Cc1ccc(NC(=O)c2ccnc(C(C)(C)C#N)c2)cc1-c1cccc(-c2ccnc3[nH]ncc23)c1 [Example 134] | ≤ 100 | 1000 to 10000 | 100 to 500 | ≤ 100
CNc1cc(-c2cccc(-c3cc(NC(=O)c4ccnc(C(C)(C)C#N)c4)ccc3C)c2)ncn1 [Example 160] | ≤ 100 | 1000 to 10000 | – | ≤ 100
Cc1ccc(NC(=O)c2ccnc(C(C)(C)C#N)c2)cc1-c1ccnc(-c2ccnc(C(=O)NC3CC3)c2)c1 [Example 162] | ≤ 100 | 1000 to 10000 | 100 to 500 | 100 to 500
CNC(=O)c1cc(-c2cc(-c3cc(NC(=O)c4ccnc(C(C)(C)C#N)c4)ccc3C)cc(C3CC3)n2)ccn1 [Example 163] | ≤ 100 | – | ≤ 100 | ≤ 100
CNC(=O)c1cc(-c2cccc(-c3cc(NC(=O)c4ccnc(C(C)(C)C#N)c4)ccc3C)c2)ncn1 [Example 171] | ≤ 100 | 1000 to 10000 | 100 to 500 | ≤ 100
Cc1ccc(NC(=O)c2cccc(C(C)(C)C#N)c2)cc1-c1cccc(-c2cc(NC(=O)C3CC3)ncn2)c1 [Example 174] | ≤ 100 | 1000 to 10000 | – | ≤ 100
CNC(=O)c1cc(-c2cc(-c3cc(NC(=O)c4ccnc(C(C)(C)C#N)c4)c(F)cc3C)ccn2)ccn1 [Example 176] | ≤ 100 | 1000 to 10000 | 100 to 500 | ≤ 100
CNC(=O)c1cc(-c2cc(-c3cc(NC(=O)c4ccnc(C5(C#N)CC5)c4)ccc3C)ncn2)ccn1 [Example 178] | ≤ 100 | 1000 to 10000 | 100 to 500 | ≤ 100
Cc1ccc(NC(=O)c2ccnc(C3CC3)c2)cc1-c1cncc(-c2ccnc(NC(=O)C3CC3)c2)n1 [Example 184] | ≤ 100 | 1000 to 10000 | – | ≤ 100

More lines, main results first:

IC50 [1] [nM] | IC50 (Miapaca-2 cells) [nM] | IC50 (H2405 cells) [nM] | SMILES | IC50 (WM3928 cells) [nM]
≤ 100 | 1000 to 10000 | ≤ 100 | CC(=O)Nc1cc(-c2cc(-c3cc(NC(=O)c4ccnc(C(F)(F)F)c4)ccc3C)ccn2)ccn1 [Example 6] | –
≤ 100 | 1000 to 10000 | ≤ 100 | CC(=O)Nc1cc(-c2ccnc(-c3cc(NC(=O)c4ccnc(C(C)(C)C#N)c4)ccc3C)n2)ccn1 [Example 103] | ≤ 100
≤ 100 | 1000 to 10000 | 1000 to 10000 | Cc1ncc(NC(=O)c2ccnc(C(C)(C)C#N)c2)cc1-c1cccc(-c2ccnc3[nH]cnc23)c1 [Example 111] | 1000 to 10000
≤ 100 | 1000 to 10000 | ≤ 100 | Cc1ccc(NC(=O)c2ccnc(C(C)(C)C#N)c2)cc1-c1cncc(-c2ccnc(NC(=O)C3CC3)c2)n1 [Example 112] | ≤ 100
≤ 100 | 1000 to 10000 | 1000 to 10000 | Cc1ccc(NC(=O)c2ccnc(C(F)(F)F)c2)cc1-c1ccnc(-c2ccnc(N)c2)n1 [Example 122] | 1000 to 10000
≤ 100 | 1000 to 10000 | ≤ 100 | CC(=O)Nc1cc(-c2cncc(-c3cc(NC(=O)c4cc(C(F)(F)F)ccn4)ccc3C)n2)ccn1 [Example 124] | ≤ 100
≤ 100 | – | 100 to 500 | COCC(=O)Nc1cc(-c2cccc(-c3cc(NC(=O)c4ccnc(C(F)(F)F)c4)cnc3C)n2)ccn1 [Example 130] | –
≤ 100 | 1000 to 10000 | – | COCCNc1cc(-c2cccc(-c3cc(NC(=O)c4ccnc(C(F)(F)F)c4)ccc3C)c2)ncn1 [Example 156] | 500 to 1000
≤ 100 | 1000 to 10000 | – | CC(=O)Nc1cc(-c2nccc(-c3cc(NC(=O)c4ccnc(C(F)(F)F)c4)cnc3C)n2)ccn1 [Example 157] | 100 to 500
≤ 100 | 1000 to 10000 | – | CNC(=O)c1cc(-c2cc(-c3cc(NC(=O)c4ccnc(C(C)(C)C#N)c4)cnc3C)ccn2)ccn1 [Example 158] | 100 to 500
≤ 100 | 1000 to 10000 | – | Cc1ccc(NC(=O)c2ccnc(C(C)(C)C#N)c2)cc1-c1cncc(-c2ccnc(NC=O)c2)n1 [Example 161] | ≤ 100
≤ 100 | 1000 to 10000 | 500 to 1000 | CNC(=O)c1cc(-c2nccc(-c3cc(NC(=O)c4ccnc(C(C)(C)C#N)c4)c(F)cc3C)n2)ccn1 [Example 166] | –
≤ 100 | 1000 to 10000 | – | CC(=O)Nc1cc(-c2nccc(-c3cc(NC(=O)c4cnnc(C5CC5)c4)ccc3C)n2)ccn1 [Example 168] | 500 to 1000
≤ 100 | 1000 to 10000 | – | Cc1ccc(NC(=O)c2ccnc(C(C)(C)C#N)c2)cc1-c1nccc(-c2ccnc(NC(=O)C3CC3)c2)n1 [Example 169] | ≤ 100
≤ 100 | 1000 to 10000 | – | Cc1ncc(NC(=O)c2ccnc(C(C)(C)C#N)c2)cc1-c1cccc(-c2ccnc(NC(=O)C3CC3)c2)n1 [Example 172] | ≤ 100
≤ 100 | 1000 to 10000 | – | CNC(=O)c1cc(-c2nccc(-c3cc(NC(=O)c4ccnc(C5(C#N)CC5)c4)ccc3C)n2)ccn1 [Example 175] | ≤ 100
≤ 100 | 1000 to 10000 | – | CNC(=O)c1cc(-c2ccnc(-c3cc(NC(=O)c4ccnc(C(C)(C)C#N)c4)ccc3C)n2)ccn1 [Example 177] | ≤ 100
≤ 100 | 1000 to 10000 | – | Cc1cc(F)c(NC(=O)c2ccnc(C(C)(C)C#N)c2)cc1-c1ccnc(-c2ccnc(NC(=O)C3CC3)c2)n1 [Example 179] | ≤ 100
≤ 100 | 1000 to 10000 | ≤ 100 | Cc1ccc(NC(=O)c2ccnc(C3(C#N)CC3)c2)cc1-c1ccnc(-c2ccnc(NC(=O)C3CC3)c2)n1 [Example 180] | ≤ 100
≤ 100 | 1000 to 10000 | ≤ 100 | Cc1ncc(NC(=O)c2ccnc(C(C)(C)C#N)c2)cc1-c1cccc(-c2cc(NC(=O)C3CC3)ncn2)c1 [Example 181] | ≤ 100
≤ 100 | 1000 to 10000 | – | CCC(=O)Nc1cc(-c2cccc(-c3cc(NC(=O)c4ccnc(C(C)(C)C#N)c4)cnc3C)n2)ccn1 [Example 182] | ≤ 100
